Data set [1] relates to memory deficits and anxiety induced by Aβ25-35. The settings on record: rats, Aβ25-35 into the lateral ventricles; cited from earlier work.
Data set [2] is described as follows: biomimetic chromatography (BMC, IAM, CHOL) with the QSAR equation, compared with computational logBB. The note with it: for ability to cross the BBB (conclusion): from biomimetic and computational studies. From the text:
To calculate the logBB values for the tested saponins, the QSAR model previously obtained was used. In this QSAR predictive model the BBB penetration potential was correlated with the lipophilic properties (logPow), excess molar refraction (E), the difference between the logarithms of n-octanol/water and cyclohexane/water partition coefficients values (ΔlogP) being the hydrogen-bonding potential:logBB = −0.114 − 0.098 ΔlogP + 0.278 logPow + 0.218E(2)
Chromatographic biomimetic methods, including IAM, BMC, and CHOL, were used to determine BBB permeability of the tested triterpenoid saponins. For this purpose, the values of logkw, being the logarithm of retention factor extrapolated to pure water, were determined. These values were compared with the logBB values calculated in silico and those obtained using the QSAR model (Equation (2)). Logkw is recognized to be an alternative to the logPow lipophilicity descriptor [96]. On the other hand, lipophilicity is one of the most important features influencing the ability of substances to cross biological barriers.
Moreover, for the micellar biomimetic studies (BMC), Foley’s equation [97] (Equation (3)) was used to calculate important physicochemical parameters, i.e., the analyte–micelle association constant (KMA) and the partition coefficient of the analyte between the stationary phase and water (Psw). These parameters can describe possible interactions in the micellar system since the Brij35 micelle can be treated as a simple model of a biological barrier. (3) 1/k= KMA/PSWΦCM+ 1/PSWΦ where k is the retention factor, CM is the concentration of micelles, KMA is the analyte–micelle association constant, PSW is the partition coefficient of the analyte between the stationary phase and water, and Φ is the volume ratio of the stationary phase to the mobile phase volume.
As mentioned above the logkw parameter, obtained from the biomimetic chromatographic systems, is recognized to be an alternative to the logarithm of the n-octanol/water partition coefficient (logPow) lipophilicity descriptor. Therefore, logkw-BMC, logkw-IAM, and logkw-CHOL values were used for the calculation of logBB based on the QSAR equation (Equation (2)), instead of the logPow parameter. The values of logBB-BMC, logBB-IAM, and logBB-CHOL were thus calculated. In Figure 2 the above-mentioned logBB values and logBB in silico calculated using the ACD/Percepta software, as well as those of logKMA that can be treated as an equivalent to the logBB parameter, are presented.
The solutions of analytical standards of the studied triterpenoid saponins were prepared in methanol (Merck, Darmstadt, Germany; p.a.) at a concentration of 1 mg/mL. […] In the research each system was optimized previously. In the IAM and CHOL studies, acetonitrile-phosphate buffer solutions (0.3; 0.4; 0.5; 0.6 v/v; pH 7.4) were used as mobile phases. In the case of BMC analysis, the buffered solution of Brij35 (0.075; 0.1; 0.125; 0.15 mol/dm^3; pH 7.4) was used as the mobile phase with the addition of isopropanol as an organic modifier (7% v/v). The buffer was prepared from the solutions of Na2HPO4 and citric acid (0.01 mol/dm^3) and the pH 7.4 value was fixed before the preparation of the mobile phases.
The following stationary phases were employed: IAM.PC.DD2 100 × 4.6 mm i.d., 10 µm (Regis Chemicals Company, Morton Grove, IL, USA); Cosmosil Cholester, 75 × 2 mm i.d., 2.5 µm (Genore, Warsaw, Poland); Purosphere RP-18e (ODS), 125 × 4 mm i.d., 5 µm (Merck, Darmstadt, Germany). The flow rates were established as follows: 1.3 mL/min (IAM), 0.4 mL/min (CHOL), and 1 mL/min (BMC). The tested saponins were detected with UV light at 254 nm. All measurements were made at 25 °C. The dead time values were measured from the non-retained compound (citric acid) peaks. All reported logkw values are the average of at least three independent measurements.

Details of data set [3]: method as in earlier work. The note with it: experimentally obtained; QSAR training and test sets; cited from earlier work.
On the set-up of data set [4]: method as in doi:10.1556/1326.2017.00147. The note with it: rat, intragastric administration of the extract, postmortem; cited from earlier work.
Data set [5] has as its system hippocampal CA1 region pyramidal neurons. Also noted: method as in PMID 19433075. The note with it: ischemia/reperfusion; cited from earlier work.
In data set [6] the test system is ethanol-induced memory impairment. More on the design: method as in PMID 18521966. The settings on record: mice; cited from earlier work.

The source of these data is article PMC8037809, “Biomimetic Chromatographic Studies Combined with the Computational Approach to Investigate the Ability of Triterpenoid Saponins of Plant Origin to Cross the Blood–Brain Barrier” (International Journal of Molecular Sciences, 2021).

Where two headings read alike, the source gives them in different places.

For the compound `CC1(C)CCC2(C(=O)OC3OC(COC4OC(CO)C(O)C(O)C4O)C(O)C(O)C3O)CCC3(C)C(=CCC4C5(C)CCC(OC6OCC(O)C(O)C6O)C(C)(CO)C5CCC43C)C2C1` (stereo not shown) [Akebia saponin D], in data set [1], the “effect on memory deficits and anxiety symptoms” value is “could significantly ameliorate the memory deficits and anxiety symptoms”. Moreover, in data set [2], the “ability to cross the BBB (conclusion)” value was “can penetrate the BBB”.
Consider `Clc1ccc(NC2=NCCN2)c(Cl)c1` [23830-88-8], for which the logBB in data set [3] was 0.16.
Consider `CC(C)NCC(O)COc1ccc(CC(N)=O)cc1` (stereo not shown) [29122-68-7], for which, in data set [3], the logBB entry was “–1”.
Regarding `CN(C)C(=O)C(CCN1CCC(O)(c2ccc(Cl)cc2)CC1)(c1ccccc1)c1ccccc1` [53179-11-6], the logBB in data set [3] is listed as 0.77.
In the case of `Cc1ccc(Cc2cnc(NCCSCc3ccc(CN(C)C)o3)[nH]c2=O)cn1` [83903-06-4], in data set [3], the logBB entry was “–1.06”.
Consider `CNC(C)CC1CCCCC1` (stereo not shown) [101-40-6], for which the logBB in data set [3] is listed as 1.08.
For the compound `Cc1cc(Cl)ccc1NC1=NCCN1` [4201-26-7], in data set [3], the logBB is on record as 0.14.
Turning to `CC1(C)CC[C@]2(C(=O)O)CC[C@]3(C)C(=CC[C@@H]4[C@@]5(C)C[C@@H](O)[C@H](O)C(C)(C)[C@@H]5CC[C@]43C)[C@@H]2[C@@H]1O` [Arjunic acid], the “presence in brain tissues” value in data set [4] is given as “present in rat brain tissues”. In data set [2], the “ability to cross the BBB (conclusion)” value is reported as “can penetrate the BBB”.
On to `O=C(CCC1CCN(Cc2ccccc2)CC1)c1ccc2c(c1)NCCCC2` [142852-50-4], for which, in data set [3], the logBB is 1.14.
Turning to `CC(C)=C[C@H]1C[C@](C)(O)[C@@H]2[C@H]3CC[C@@H]4[C@@]5(C)CC[C@H](O[C@@H]6O[C@H](CO)[C@@H](O)[C@H](O[C@@H]7O[C@H](CO)[C@@H](O)[C@H](O)[C@H]7O)[C@H]6O[C@@H]6O[C@@H](CO)[C@H](O)[C@H]6O)C(C)(C)[C@@H]5CC[C@@]4(C)[C@@]34CO[C@@]2(C4)O1` [Bacoside A], the “ability to cross the BBB (conclusion)” value in data set [2] is given as “can penetrate the BBB”.
With `C[C@@H]1O[C@@H](O[C@H]2[C@H](OC(=O)[C@]34CCC(C)(C)C[C@H]3C3=CC[C@@H]5[C@@]6(C)C[C@H](O)[C@H](O[C@@H]7O[C@H](CO)[C@@H](O)[C@H](O)[C@H]7O)C(CO)(CO)[C@@H]6CC[C@@]5(C)[C@]3(C)C[C@H]4O)OC[C@H](O)[C@@H]2O)[C@H](O)[C@H](O)[C@H]1O[C@@H]1OC[C@@H](O)[C@H](O[C@@H]2OC[C@](O)(CO)[C@H]2O)[C@H]1O` [Platycodin D], the “protection from ischemic damage” value in data set [5] is “protects the hippocampal CA1 region pyramidal neurons from an ischemic damage”. Further, in data set [6], the “effect on ethanol-induced memory impairment” value was “could improve ethanol-induced memory impairment”. In addition, the “average logBB” value in data set [2] (average of all obtained logBB values (biomimetic and computational)) is −1.681. The “ability to cross the BBB (conclusion)” value in data set [2] was “does not cross this barrier”. The logBB in data set [2] (span of the obtained values over the methods) is given as −2 to −1.29.
With `Brc1cc(Br)c(NC2=NCCN2)c(Br)c1` [38941-33-2], the logBB in data set [3] is reported as 0.58.
For the compound `COc1ccc2nc([S+]([O-])Cc3ncc(C)c(OC)c3C)[nH]c2c1` (stereo not shown) [73590-58-6], the logBB entry in data set [3] is recorded as “–0.82”.
As for `Cc1c(O)cccc1C(=O)N[C@@H](CSc1ccccc1)[C@H](O)CN1C[C@H]2CCCC[C@H]2C[C@H]1C(=O)NC(C)(C)C` [159989-64-7], the logBB entry in data set [3] is recorded as “–0.93”.
For `C=CCC1(C(C)CCC)C(=O)NC(=O)NC1=O` (stereo not shown) [76-73-3], the logBB in data set [3] is recorded as 0.2.
For the compound `CN1C(=O)CN=C(c2ccccc2)c2cc(Cl)ccc21` [439-14-5], in data set [3], the logBB was 0.56.
Take `Cc1ccccc1NC1=NCCN1` [36318-56-6]: the logBB in data set [3] is listed as 0.04.
On to `CC(C)NCC(O)COc1ccc(CCOCC2CC2)cc1` (stereo not shown) [63659-18-7], for which the logBB in data set [3] is recorded as 0.39.
Take `CN1CC[C@]23c4c5ccc(O)c4O[C@H]2[C@@H](O)C=C[C@H]3[C@H]1C5.Cl` [52-26-6]: the logBB entry in data set [3] is reported as “–0.16”.
